Calls of active or inactive are those of the source.
Tests used:
[1] = biological target: T1, Tyrosine-protein phosphatase non-receptor type 22 (Homo sapiens, UniProt Q9Y2R2); format: functional
[2] = biological target: Tyrosine-protein phosphatase non-receptor type 7 (Homo sapiens, UniProt P35236); format: functional
[3] = biological target: T1, Tyrosine-protein phosphatase non-receptor type 22; format: functional; remark: listed apart in the source
[4] = Vero E6 cell cytotoxicity, dose response, cytotoxicity control for non-replicating M. tuberculosis project, secondary assay (AID 492998); format: functional, VeroE6; settings: Vero C1008
[5] = biological target: T2, Kappa-type opioid receptor (Homo sapiens, UniProt P41145); test: SAR analysis of small molecule antagonists of the kappa opioid receptor via a luminescent beta-arrestin assay - Set 5. [Related pubchem assays (depositor defined):AID1778, AID1785]; format: functional
[6] = biological target: T2, Kappa-type opioid receptor; test: SAR analysis of small molecule antagonists of the kappa opioid receptor via a luminescent beta-arrestin assay - Set 4. [Related pubchem assays (depositor defined):AID1777, AID1778, AID1785, AID1786, AID1966, AID2133, AID2136, AID2285]; format: functional
[7] = biological target: T3, Rac GTPase-activating protein 1 (Homo sapiens, UniProt Q9H0H5); test: MgcRacGAP GTPase-activating activity inhibitors, confirmation, biochemical, ADP Hunter fluorescence, primary and confirmatory (AID 624330); format: functional
T3 sequence (Q9H0H5 whole entry): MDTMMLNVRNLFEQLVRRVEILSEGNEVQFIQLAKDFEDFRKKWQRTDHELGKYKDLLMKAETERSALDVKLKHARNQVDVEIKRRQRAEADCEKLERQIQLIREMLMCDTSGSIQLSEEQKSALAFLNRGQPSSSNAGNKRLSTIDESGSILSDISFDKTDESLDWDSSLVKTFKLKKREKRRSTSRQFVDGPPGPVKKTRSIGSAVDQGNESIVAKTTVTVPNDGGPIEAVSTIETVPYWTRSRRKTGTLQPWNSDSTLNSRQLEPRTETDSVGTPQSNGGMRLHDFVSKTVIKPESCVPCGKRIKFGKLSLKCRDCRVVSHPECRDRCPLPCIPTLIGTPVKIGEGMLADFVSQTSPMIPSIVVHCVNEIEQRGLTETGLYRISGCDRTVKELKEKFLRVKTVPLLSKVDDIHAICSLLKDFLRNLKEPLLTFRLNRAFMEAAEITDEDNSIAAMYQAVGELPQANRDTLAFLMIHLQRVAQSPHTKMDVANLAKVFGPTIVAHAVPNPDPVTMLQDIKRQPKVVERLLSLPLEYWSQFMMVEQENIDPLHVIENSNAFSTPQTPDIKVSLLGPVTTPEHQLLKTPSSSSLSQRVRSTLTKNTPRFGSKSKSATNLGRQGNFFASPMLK

[8] = HEp-2 cell cytotoxicity, dose response, cytotoxicity control for RSV inhibitor project, HTS (AID 2410); format: functional; settings: human respiratory syncytial virus
Large T antigen = Large T antigen (Simian virus 40, UniProt P03070); format: functional, Betapolyomavirus macacae;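 note: Confirmatory-stage PubChem screen for compounds that inhibit SV40 T antigen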
[9] = HeLa cell cytotoxicity, dose response, cytotoxicity control for MgcRacGAP inhibitor project (AID 624300); format: functional
[10] = Shn3 3'UTR reporter inhibitors, dose response, cell-based, Clone20 osteoblasts, firefly luciferase, cherry-picked (AID 624132); format: functional;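 note: firefly luciferase luminescence from reporter carrying the Shn3 3'UTR in osteoblasts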
[11] = control 3'UTR Renilla luciferase suppression, dose response, counter-screen for Shn3 inhibitor project, cell-based, Clone20-Shn3RL, cherry-picked (AID 624133); format: functional
INS1 = test: beta cell apoptosis inhibitors, cytokine rescue, dose response, luminescence, retest (AID 449756); format: functional, cell-based; settings: Rattus norvegicus;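 note: cell death triggered by IL-1 beta plus TNF-alpha plus IFN-gamma mixture; protective hits raise ATP signal compared with cytokine alone wells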
[12] = biological target: Neurotensin receptor type 1 (Homo sapiens, UniProt P30989); format: functional;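 note: Image-based confirmatory dose-response assay measuring agonist activity at NTR1; NTR1-expressing U2OS osteosarcoma cells imaged for beta-arrestin GFP spot formation; agonist potency where compounds increase beta-arrestin recruitment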
[13] = biological target: T4, Voltage-gated N-type calcium channel alpha-1B subunit/Amyloid beta A4 precursor protein-binding family A member 1 (Homo sapiens, UniProt Q00975+Q02410); format: protein assay
[14] = biological target: DNA damage-inducible transcript 3 protein (Mus musculus, UniProt P35639); format: functional, Cricetulus griseus
Genome polyprotein = Genome polyprotein (dengue virus type 2, UniProt P29990); test: Dengue-2 NS5 methyltransferase inhibitors, primary screen, biochemical, confirmation dose response (AID 588689); format: functional
[15] = biological target: T4, Voltage-gated N-type calcium channel alpha-1B subunit/Amyloid beta A4 precursor protein-binding family A member 1; format: protein assay; remark: listed apart in the source
Troponin, cardiac muscle = Troponin, cardiac muscle (Homo sapiens, UniProt P19429+P45379+P63316); test: Fluorescence-based biochemical high throughput dose response assay for activators of the calcium sensitivity of cardiac Regulated Thin Filaments (RTF). [Related pubchem assays (depositor defined):AID493008, AID493018, AID504382, AID504383]; format: protein-complex assay
[16] = microbe, parasite or virus in culture; format: functional; settings: Mycobacterium tuberculosis
[17] = biological target: T5, Heat shock factor protein 1 (Mus musculus, UniProt P38532); test: HSF1 potentiators in luciferase reporter cells, confirmation, cell-based, NIH3T3, luminescence, dose retest (AID 435004); format: functional;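 note: stress induced by proteasome inhibitor MG132 added 30 min after compound; luciferase reporter driven by HSF1 response element in NIH3T3 cells; actives raise luminescence as potentiators of the MG132 stress response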
T5 sequence (P38532 whole entry): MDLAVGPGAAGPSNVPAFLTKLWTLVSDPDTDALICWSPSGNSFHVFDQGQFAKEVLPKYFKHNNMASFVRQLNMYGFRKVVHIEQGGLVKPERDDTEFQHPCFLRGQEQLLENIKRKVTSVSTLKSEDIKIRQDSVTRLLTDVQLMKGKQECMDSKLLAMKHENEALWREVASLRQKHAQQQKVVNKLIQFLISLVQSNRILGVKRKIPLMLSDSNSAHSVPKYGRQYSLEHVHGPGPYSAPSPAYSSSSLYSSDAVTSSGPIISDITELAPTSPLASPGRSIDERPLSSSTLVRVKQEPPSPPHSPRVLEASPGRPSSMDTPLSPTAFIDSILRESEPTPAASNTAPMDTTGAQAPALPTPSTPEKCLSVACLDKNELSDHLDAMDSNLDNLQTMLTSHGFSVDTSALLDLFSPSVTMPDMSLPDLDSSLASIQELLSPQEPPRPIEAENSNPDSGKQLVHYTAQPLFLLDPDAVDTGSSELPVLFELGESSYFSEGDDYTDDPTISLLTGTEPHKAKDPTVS

[18] = growth suppression of beta-catenin-knockout colon cells, dose response, cell-based, HCT116, human colon tumor (AID 1045); format: functional;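 note: HCT116 colon tumor cells with beta catenin knocked out; cells exposed to compound for 60 hours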
[19] = growth suppression of PTEN-null colon cells, dose response, cell-based, HCT116 PTEN knockout (AID 1047); format: functional;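 note: HCT116 colon tumor cells with PTEN knocked out; cells exposed to compound for 60 hours before readout; potency for loss of cell viability measured by luminescence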
[20] = Intein inhibitors as potential Tuberculosis drugs, a cytotoxicity screen. [Related pubchem assays (depositor defined):AID2221, AID2223, AID434968, AID435010, AID449749, AID449750, AID489010]; format: functional
[21] = biological target: T6, Replicative DNA helicase DnaB (Mycobacterium tuberculosis, UniProt P9WMR3); test: DnaB intein splicing inhibitors, dose response, biochemical, cell-free fluorescence (AID 449749); format: functional
T6 sequence (P9WMR3 whole entry): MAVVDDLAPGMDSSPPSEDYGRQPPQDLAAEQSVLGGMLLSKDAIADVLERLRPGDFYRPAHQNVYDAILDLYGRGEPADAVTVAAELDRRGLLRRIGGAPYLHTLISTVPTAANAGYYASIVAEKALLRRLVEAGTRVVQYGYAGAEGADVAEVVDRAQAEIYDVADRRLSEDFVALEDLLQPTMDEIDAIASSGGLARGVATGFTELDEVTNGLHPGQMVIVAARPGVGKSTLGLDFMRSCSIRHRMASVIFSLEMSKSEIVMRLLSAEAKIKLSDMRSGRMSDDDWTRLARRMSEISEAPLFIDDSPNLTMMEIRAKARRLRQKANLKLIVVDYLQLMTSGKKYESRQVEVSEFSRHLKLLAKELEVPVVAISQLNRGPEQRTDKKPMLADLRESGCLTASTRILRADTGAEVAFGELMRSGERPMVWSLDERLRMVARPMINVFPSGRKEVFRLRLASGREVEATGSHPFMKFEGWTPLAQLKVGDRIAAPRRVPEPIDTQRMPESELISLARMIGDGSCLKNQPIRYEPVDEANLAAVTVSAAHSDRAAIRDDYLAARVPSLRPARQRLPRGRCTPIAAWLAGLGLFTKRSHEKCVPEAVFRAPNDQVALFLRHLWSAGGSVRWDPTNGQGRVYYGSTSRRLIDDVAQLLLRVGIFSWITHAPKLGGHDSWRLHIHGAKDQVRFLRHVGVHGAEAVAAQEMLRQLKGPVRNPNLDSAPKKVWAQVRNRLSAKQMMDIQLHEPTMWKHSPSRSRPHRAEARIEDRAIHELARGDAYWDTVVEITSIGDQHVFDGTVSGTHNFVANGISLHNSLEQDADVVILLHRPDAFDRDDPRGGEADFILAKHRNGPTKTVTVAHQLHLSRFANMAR

Protein RecA = biological target: T7, Protein RecA (Mycobacterium tuberculosis, UniProt P9WHJ3); test: Fluorescence Cell-Free Homogeneous Dose Retest to Identify Inhibitors of RecA-Intein Splicing Activity. [Related pubchem assays (depositor defined):AID2097, AID2223, AID489010, AID492950]; format: functional
T7 sequence (P9WHJ3 whole entry): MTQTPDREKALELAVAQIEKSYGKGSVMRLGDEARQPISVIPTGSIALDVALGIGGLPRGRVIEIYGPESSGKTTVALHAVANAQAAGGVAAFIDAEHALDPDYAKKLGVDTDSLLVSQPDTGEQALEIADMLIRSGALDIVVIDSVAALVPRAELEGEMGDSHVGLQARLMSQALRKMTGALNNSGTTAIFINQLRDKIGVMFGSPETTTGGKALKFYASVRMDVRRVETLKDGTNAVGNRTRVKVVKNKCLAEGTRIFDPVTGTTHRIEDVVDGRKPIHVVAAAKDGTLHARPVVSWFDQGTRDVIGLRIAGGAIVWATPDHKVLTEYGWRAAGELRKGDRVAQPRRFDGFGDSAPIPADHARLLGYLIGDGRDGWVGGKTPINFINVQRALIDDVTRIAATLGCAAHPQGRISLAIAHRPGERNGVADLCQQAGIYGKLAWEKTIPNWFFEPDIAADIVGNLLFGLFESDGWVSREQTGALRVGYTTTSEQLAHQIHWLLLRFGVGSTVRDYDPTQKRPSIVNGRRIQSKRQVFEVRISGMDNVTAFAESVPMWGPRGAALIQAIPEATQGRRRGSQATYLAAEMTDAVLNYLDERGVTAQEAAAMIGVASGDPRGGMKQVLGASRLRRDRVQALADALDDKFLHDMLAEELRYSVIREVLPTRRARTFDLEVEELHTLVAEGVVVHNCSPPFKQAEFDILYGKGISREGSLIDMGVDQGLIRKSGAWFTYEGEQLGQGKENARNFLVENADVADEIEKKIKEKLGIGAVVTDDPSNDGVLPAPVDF

[22] = cytotoxicity in HEK-293T cells, dose response, cytotoxicity control for TCR NF-kB inhibitor project, luminescence, T-cell screen hits (AID 489026); format: functional, cell-based;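 note: cells exposed to compound about 14 hours before the viability readout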
Paired box protein Pax-8 = Paired box protein Pax-8 (Homo sapiens, UniProt Q06710); test: inhibitors of PAX8-driven TPO luciferase reporter, dose response, RMG-I cells, cherry-pick (AID 687027); format: functional, cell-based;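 note: luciferase reporter driven by Pax8 target thyroperoxidase promoter measured by SteadyGlo luminescence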
Integrin alpha-L = Integrin alpha-L (Mus musculus, UniProt P24063); test: modulators of CD8 T cell-vesicle binding, dose response, powder samples, mouse 2C CD8+ cells (AID 504565); format: functional
T-cell = test: inhibitors of CD8+ T cell–vesicle binding, dose response, mouse 2C CD8+ T cells, flow cytometry (AID 485284); format: functional

Structure (SMILES): O=C(NCc1ccccc1)c1cncc(Br)c1
- IC50 [1]: > 79.4 µM (inactive)
- IC50 [2]: > 79.4 µM (inactive)
- IC50 [3]: > 79.4 µM (inactive)

Structure (SMILES): O=C(CCS(=O)(=O)Cc1ccccc1)Nc1ncc([N+](=O)[O-])s1
- CC50 [4]: > 20 µM (active)

Structure (SMILES): Cc1ccc(S(=O)(=O)NCc2ccc(C(=O)NCCN(Cc3ccccc3)CC(C)C)cc2)cc1
- IC50 [5]: 4.33 µM (active)
- IC50 [6]: > 20 µM (inactive)

Structure (SMILES): Cc1ccc(-c2ccc(/C=C3\C(=O)ON=C3c3ccccc3)o2)c([N+](=O)[O-])c1
- IC50 [7]: 67.2 µM (active)
- CC50 [8]: 9.29 µM (active)
- IC50 (Large T antigen): 29.5 µM (active)
- CC50 [9]: 50 µM (active)
- AC50 [10]: 3.3 µM (active)
- AC50 [11]: 15 µM (active)
- AC50 (INS1): 7.23 µM (active)
- EC50 [12]: 7.89 µM (active)
- IC50 [13]: 10.5 µM (active)
- Absolute IC50 (CHOP) [14]: 10 µM
- IC50 (Genome polyprotein): 11.1 µM (active)
- IC50 [15]: > 50 µM (inactive)

Structure (SMILES): CC(Oc1ccc(F)cc1)C(=O)Nc1sc2c(c1C(=O)NCc1cccnc1)CCCC2 (stereo unspecified)
- EC50 (Troponin, cardiac muscle): > 71.5 µM (inactive)
- CC50 [16]: > 40 µM (active)

Structure (SMILES): Cc1cc(C)cc(Cn2ncc(Cl)c(Cl)c2=O)c1
- EC50 [17]: 21.7 µM (active)
- EC50 [18]: 6.91 µM (active)
- EC50 [19]: 8.8 µM (active)
- CC50 [20]: 22.5 µM (active)
- AC50 [21]: 2.12 µM (active)
- EC50 (Protein RecA): 985 nM (active)

Structure (SMILES): COc1ccc(C[C@H](N)C(=O)N[C@H]2[C@@H](O)[C@H](n3cnc4c(N(C)C)ncnc43)O[C@@H]2CO)cc1
- IC50 [22]: > 80 µM (inactive)
- AC50 (Paired box protein Pax-8): 546 nM (active)
- CC50 [16]: 4.73 µM (active)

Structure (SMILES): CCOC(=O)c1ccc(S(=O)(=O)N2CCN(C3CCCC3)CC2)cc1
- EC50 (Integrin alpha-L): 11 µM (active)
- EC50 (T-cell): 22.2 µM (active)

— ChEMBL document CHEMBL1201862, “PubChem BioAssay data set” (2004)
